Where two headings read alike, the source gives them in different places.
Tested on: H460 non-cell lung cancer human tumor cell line
Assay: In vitro human tumor cell line cytotoxicity (proliferation) assay, AlamarBlue
Format: cell-based
Method: IC50 values are reported in micromolar and result from exposure of compound at various concentrations for 2 hrs followed by a wash step and addition of fresh media followed by growth and cell viability staining and comparison to a media only treated control.
Specifically, exponentially growing cells are seeded at a density of 4×10^3 cells per well in a 96 well plate and incubated at 37° C. in 5% CO2, 95% air and 100% relative humidity for 24 hours prior to addition of test compounds. Compounds are solubilized in 100% DMSO at 200 times the desired final test concentration. At the time of drug addition, compounds are further diluted to 4 times the desired final concentration with complete medium. Aliquots of 50 μl of compound at specified concentrations are added to microtiter wells already containing 150 μl of medium, resulting in the final drug concentration reported. After drug addition, the plates are incubated for an additional 2 hours at 37° C., 5% CO2, 95% air, and 100% relative humidity, then the drug is washed off and fresh medium is added and the plates are incubated for addition 70 hrs at 37° C., 5% CO2, 95% air and 100% relative humidity. At the end of this incubation, the viable cells are quantified using the AlamarBlue assay. The drug concentration resulting in growth inhibition of 50% (IC50) is calculated using Prism software (Irvine, Calif.), and the results are listed in the table.

[1] = Homo sapiens, NCI-H460, H460 cells, under air, 2 hrs exposure, wash, then 70 hrs growth, read-out: IC50 (air)
[2] = Homo sapiens, NCI-H460, H460 cells, under nitrogen, 2 hrs exposure, wash, then 70 hrs growth, read-out: IC50 (N2)
[3] = Homo sapiens, NCI-H460, read-out: IC50 (N2), H460 cells, under nitrogen, 2 hrs exposure, wash, then 70 hrs growth
[4] = Homo sapiens, NCI-H460, read-out: IC50 (air), H460 cells, under air, 2 hrs exposure, wash, then 70 hrs growth
[5] = H460 cells, under air, 2 hrs exposure, wash, then 70 hrs growth, read-out: IC50 (air)
[6] = H460 cells, under nitrogen, 2 hrs exposure, wash, then 70 hrs growth, read-out: IC50 (N2)

Compound	IC50 [1]	IC50 [2]	further results
CC(OP(=O)(N1CC1)N1CC1)c1ccc([N+](=O)[O-])c(-n2ccc3ncccc32)c1 (centres unmarked) [compound 2763]	5000 nM	100 nM	–
CC(OP(=O)(N1CC1)N1CC1)c1ccc([N+](=O)[O-])c(Br)c1 (centres unmarked) [compound 2773]	16000 nM	700 nM	–
C=Cc1nc([N+](=O)[O-])n(C)c1COP(=O)(N1CC1)N1CC1 [compound 2129]	700 nM	80 nM	–
CC(OP(=O)(N1CC1)N1CC1)c1ccc([N+](=O)[O-])c(N(C)CCN2CCOCC2)c1 (centres unmarked) [compound 2757]	–	–	IC50 [3]: 3800 nM; IC50 [4]: 380000 nM
O=[N+]([O-])c1cc(Cl)ccc1COP(=O)(N1CC1)N1CC1 [compound 2592]	3300 nM	700 nM	–
CC(OP(=O)(N1CC1)N1CC1)c1ccc([N+](=O)[O-])c(-n2cnc(C(C)(C)C)c2)c1 (centres unmarked) [compound 2759]	100000 nM	400 nM	–
Cc1nccn1-c1cc(C(C)OP(=O)(N2CC2)N2CC2)ccc1[N+](=O)[O-] (centres unmarked) [compound 2738]	20000 nM	200 nM	–
CC(OP(=O)(N1CC1)N1CC1)c1cc(-n2ccnc2)c([N+](=O)[O-])cc1F (centres unmarked) [compound 2731]	13000 nM	100 nM	–
CC(OP(=O)(N1CC1)N1CC1)c1ccc([N+](=O)[O-])c(-n2nnc3ccccc32)c1 (centres unmarked) [compound 2777]	3400 nM	10 nM	–
CC(OP(=O)(N1CC1)N1CC1)c1ccc([N+](=O)[O-])c(-n2ccnc2Br)c1 (centres unmarked) [compound 2807]	13000 nM	30 nM	–
C=Cc1nc([N+](=O)[O-])n(C)c1COP(=O)(NCCBr)N1CC1 (centres unmarked) [compound 2130]	–	–	IC50 [3]: 5 nM; IC50 [4]: 1300 nM
CC(OP(=O)(N1CC1)N1CC1)c1ccc([N+](=O)[O-])c(N2CCNC2(C)O)c1 (centres unmarked) [compound 2723]	420000 nM	29000 nM	–
Cn1c([N+](=O)[O-])cnc1C(OP(=O)(N1CC1)N1CC1)C(c1ccccc1)c1ccccc1 (centres unmarked) [compound 2640]	83000 nM	1100 nM	–
CC(OP(=O)(N1CC1)N1CC1)c1ccc([N+](=O)[O-])c(S(C)(=O)=O)c1 (centres unmarked) [compound 2700]	370000 nM	350000 nM	–
CC(OP(=O)(N1CC1)N1CC1)c1ccc([N+](=O)[O-])c(NS(C)(=O)=O)c1 (centres unmarked) [compound 2726]	19000 nM	200 nM	–
CC(OP(=O)(N1CC1)N1CC1)c1ccc([N+](=O)[O-])c(-c2ccc(-c3ccccc3)cc2)c1 (centres unmarked) [compound 2790]	4000 nM	1800 nM	–
CC(OP(=O)(N1CC1)N1CC1)c1cc(N2CCN(C)CC2)c([N+](=O)[O-])cc1F (centres unmarked) [compound 2732]	23000 nM	200 nM	–
CC(OP(=O)(N1CC1)N1CC1)c1ccc([N+](=O)[O-])c(N(C)C)c1 (centres unmarked) [compound 2680]	110000 nM	2600 nM	–
Cc1nccn1-c1cc(C(C)OP(=O)(N2CC2)N2CC2)c(F)cc1[N+](=O)[O-] (centres unmarked) [compound 2755]	4400 nM	30 nM	–
CC(OP(=O)(N1CC1)N1CC1)c1ccc([N+](=O)[O-])c(-n2ccnc2)c1 (centres unmarked) [compound 2703]	–	–	IC50 [5]: 99000 nM; IC50 [6]: 200 nM
CC(OP(=O)(N1CC1)N1CC1)c1ccc([N+](=O)[O-])c(-n2ccnc2-c2ccccc2)c1 (centres unmarked) [compound 2766]	4800 nM	700 nM	–
CC(OP(=O)(N1CC1)N1CC1)c1ncc([N+](=O)[O-])n1C (centres unmarked) [compound 2552]	–	–	IC50 [5]: 23000 nM; IC50 [6]: 100 nM
CC(OP(=O)(N1CC1)N1CC1)c1ccc([N+](=O)[O-])c(-c2cn(COC(=O)C(C)(C)C)nn2)c1 (centres unmarked) [compound 2793]	4000 nM	400 nM	–
CCc1nc([N+](=O)[O-])n(C)c1COP(=O)(N1CC1)N1CC1 [compound 2119]	900 nM	30 nM	–
CC(OP(=O)(N1CC1)N1CC1)c1cc(-n2nnc3ccccc32)c([N+](=O)[O-])cc1F (centres unmarked) [compound 2787]	2300 nM	20 nM	–

Compound	IC50 [1]	IC50 [2]	further results
CC(OP(=O)(N1CC1)N1CC1)c1ccc([N+](=O)[O-])c(N2CCCC2)c1 (centres unmarked) [compound 2708]	20000 nM	3000 nM	–
Cn1c([N+](=O)[O-])cnc1C(OP(=O)(N1CC1)N1CC1)C1CCCCC1 (centres unmarked) [compound 2633]	83000 nM	300 nM	–
CCCCCCCCN(C)c1cc(C(C)OP(=O)(N2CC2)N2CC2)ccc1[N+](=O)[O-] (centres unmarked) [compound 2735]	3100 nM	2000 nM	–
Cn1c([N+](=O)[O-])nc(-c2sc(Br)c(Br)c2Br)c1COP(=O)(N1CC1)N1CC1 [compound 2523]	400 nM	20 nM	–
Cn1c([N+](=O)[O-])cnc1C(OP(=O)(NCCBr)NCCBr)C1CC1 (centres unmarked) [compound 2519]	–	–	IC50 [3]: > 500000 nM; IC50 [4]: > 500000 nM
CCN(CC)c1cc(C(C)OP(=O)(N2CC2)N2CC2)ccc1[N+](=O)[O-] (centres unmarked) [compound 2701]	66000 nM	1300 nM	–
CC(C)C(OP(=O)(N1CC1)N1CC1)c1ncc([N+](=O)[O-])n1CCOC(C)(C)C (centres unmarked) [compound 2643]	37000 nM	600 nM	–
CC(OP(=O)(N1CC1)N1CC1)c1ccc([N+](=O)[O-])c(-c2ccco2)c1 (centres unmarked) [compound 2782]	41000 nM	1700 nM	–
CC(C)(C)[Si](C)(C)OCCC(OP(=O)(N1CC1)N1CC1)c1ccc([N+](=O)[O-])cc1 (centres unmarked) [compound 2712]	300 nM	200 nM	–
Cc1ccccc1-c1cc(C(C)OP(=O)(N2CC2)N2CC2)ccc1[N+](=O)[O-] (centres unmarked) [compound 2800]	30000 nM	1300 nM	–
CCC(OP(=O)(N1CC1)N1CC1)c1ccc([N+](=O)[O-])cc1 (centres unmarked) [compound 2681]	28000 nM	300 nM	–
CNc1cc(C(C)OP(=O)(N2CC2)N2CC2)ccc1[N+](=O)[O-] (centres unmarked) [compound 2679]	34000 nM	2900 nM	–
CC(C)C(OP(=O)(N1CC1)N1CC1)c1ccc([N+](=O)[O-])cc1 (centres unmarked) [compound 2572]	29000 nM	1600 nM	–
CC(OP(=O)(N1CC1)N1CC1)c1cc(-n2cnc([N+](=O)[O-])c2)c([N+](=O)[O-])cc1F (centres unmarked) [compound 2742]	–	–	IC50 [3]: 100 nM; IC50 [4]: 3000 nM
COc1cccc([N+](=O)[O-])c1COP(=O)(N1CC1)N1CC1 [compound 2637]	23000 nM	800 nM	–
CC(OP(=O)(N1CC1)N1CC1)c1ccc([N+](=O)[O-])c(N2CCC3(CC2)OCCO3)c1 (centres unmarked) [compound 2709]	26000 nM	2400 nM	–
CC(OP(=O)(N1CC1)N1CC1)c1ccc([N+](=O)[O-])c(-c2cccs2)c1 (centres unmarked) [compound 2783]	51000 nM	1700 nM	–
CC(OP(=O)(N1CC1)N1CC1)c1ccc([N+](=O)[O-])cc1 (centres unmarked) [compound 2537]	–	–	IC50 [3]: 300 nM; IC50 [4]: 53000 nM
CC(OP(=O)(N1CC1)N1CC1)c1ncc([N+](=O)[O-])n1C (centres unmarked) [compound 2501]	21000 nM	50 nM	–
Cn1c([N+](=O)[O-])cnc1C(OP(=O)(N1CC1)N1CC1)C1CC1 (centres unmarked) [compound 2520]	20000 nM	8800 nM	–
CC(OP(=O)(N1CC1)N1CC1)c1ccc([N+](=O)[O-])c(C[N+](=O)[O-])c1 (centres unmarked) [compound 2811]	–	–	IC50 [3]: 100 nM; IC50 [4]: 8400 nM
CCCCCCCC/C=C/CCCCCCCC(=O)N(C)Cc1nc([N+](=O)[O-])n(C)c1COP(=O)(N1CC1)N1CC1 [compound 2334]	140 nM	9 nM	–
O=[N+]([O-])c1ccccc1C(OP(=O)(N1CC1)N1CC1)c1ccccc1 (centres unmarked) [compound 2563]	15000 nM	3200 nM	–
CC(OP(=O)(N1CC1)N1CC1)c1ccc([N+](=O)[O-])c(-n2ccnc2)c1 (centres unmarked) [compound 2803]	–	–	IC50 [5]: 150000 nM; IC50 [6]: 300 nM
